Measurements from ChEMBL document CHEMBL1201862, “PubChem BioAssay data set” (2004).
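Test compounds were applied to cells in 96-well plates for 48 hours at 5 doses. Here, GI50 denotes the concentration required for 50% inhibition of growth.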 The source made the active and inactive calls. Rule as the data show it: active = GI50 up to about 1.1 µM and inactive = higher.

Experiments:
Experiment in all cases: DTP human tumour cell line panel, 48 h
[1] = system: SF-295
[2] = system: LOX IMVI
[3] = system: A498
[4] = system: MOLT-4
[5] = system: SNB-19
[6] = system: UACC-62
[7] = system: SR
[8] = system: SF-268
[9] = system: A549
[10] = system: HT-29
[11] = system: COLO 205
[12] = system: HOP-92
[13] = system: MCF7
[14] = system: OVCAR-3
[15] = system: MDA-MB-231
[16] = system: SW-620
[17] = system: EKVX
[18] = system: CAKI-1
[19] = system: CCRF-CEM

Structure (SMILES)	GI50 [1]	GI50 [2]	GI50 [3]	GI50 [4]	GI50 [5]	GI50 [6]	GI50 [7]	GI50 [8]	GI50 [9]	GI50 [10]	GI50 [11]	GI50 [12]	GI50 [13]	GI50 [14]	GI50 [15]	GI50 [16]	GI50 [17]	GI50 [18]	GI50 [19]
C=C1CCCCCCCCCCC12SCCC2CCCCSC (stereo not drawn)	19.9 µM (inactive)	19.5 µM (inactive)	20.8 µM (inactive)	21.3 µM (inactive)	21.8 µM (inactive)	27.1 µM (inactive)	33.1 µM (inactive)	28.7 µM (inactive)	34.3 µM (inactive)	22.3 µM (inactive)	19 µM (inactive)	28.1 µM (inactive)	21 µM (inactive)	16.7 µM (inactive)	19.9 µM (inactive)	20.3 µM (inactive)	34.6 µM (inactive)		
CCCCCCCCCCCc1c(O)c(=O)c2c(oc3c(=O)c(CCCCCCCCCCC)c(O)c(=O)c3n2-c2ccc(N(C)C)cc2)c1=O	21.8 µM (inactive)	24.2 µM (inactive)	20.7 µM (inactive)	> 100 µM (inactive)	20.8 µM (inactive)	18 µM (inactive)	65.2 µM (inactive)	22.2 µM (inactive)	23.6 µM (inactive)	23.1 µM (inactive)	20 µM (inactive)			18.8 µM (inactive)		24 µM (inactive)	24 µM (inactive)	15.7 µM (inactive)	26 µM (inactive)
n1onc2c1NC1Nc3nonc3NC1N2 (stereo not drawn)	> 100 µM (inactive)	> 100 µM (inactive)	> 100 µM (inactive)	> 100 µM (inactive)	27.7 µM (inactive)			> 100 µM (inactive)	> 100 µM (inactive)	> 100 µM (inactive)	> 100 µM (inactive)	> 100 µM (inactive)	> 100 µM (inactive)	> 100 µM (inactive)		> 100 µM (inactive)	> 100 µM (inactive)	> 100 µM (inactive)	> 100 µM (inactive)
Cc1ccc(NC(=O)C(=O)CC(=O)c2c(C)[n+]([O-])c3ccccc3[n+]2[O-])cc1	51.1 µM (inactive)	20 µM (inactive)	> 100 µM (inactive)	23.4 µM (inactive)	54.1 µM (inactive)	17.7 µM (inactive)	20.5 µM (inactive)	35.8 µM (inactive)	31 µM (inactive)	33.6 µM (inactive)	23.9 µM (inactive)	21.9 µM (inactive)		12 µM (inactive)		33.7 µM (inactive)	16.9 µM (inactive)	79.1 µM (inactive)	20.1 µM (inactive)
Nc1nc(Cl)c2ncn(CCCC(c3ccccc3)P(=O)(O)O)c2n1 (stereo not drawn)	> 100 µM (inactive)	> 100 µM (inactive)	> 100 µM (inactive)		> 100 µM (inactive)	> 100 µM (inactive)	> 100 µM (inactive)	> 100 µM (inactive)	> 100 µM (inactive)	> 100 µM (inactive)	> 100 µM (inactive)	> 100 µM (inactive)		> 100 µM (inactive)		> 100 µM (inactive)		> 100 µM (inactive)	> 100 µM (inactive)
Clc1ccc(/N=N/c2nc3ccccc3nc2/N=N/c2ccc(Cl)cc2Cl)c(Cl)c1	> 100 µM (inactive)	> 100 µM (inactive)	> 100 µM (inactive)	29.4 µM (inactive)	65.8 µM (inactive)		33.5 µM (inactive)	> 100 µM (inactive)	> 100 µM (inactive)	> 100 µM (inactive)	> 100 µM (inactive)	44 µM (inactive)		70 µM (inactive)		> 100 µM (inactive)	> 100 µM (inactive)		
O=C(CCCCCCCCC(=O)OCCCn1cc(C(=O)NC(=O)OCc2ccccc2)c(=O)[nH]c1=O)OCCCn1cc(C(=O)NC(=O)OCc2ccccc2)c(=O)[nH]c1=O	> 100 µM (inactive)	> 100 µM (inactive)	> 100 µM (inactive)	> 100 µM (inactive)	> 100 µM (inactive)	> 100 µM (inactive)		> 100 µM (inactive)	> 100 µM (inactive)	> 100 µM (inactive)	> 100 µM (inactive)	> 100 µM (inactive)		> 100 µM (inactive)		> 100 µM (inactive)	> 100 µM (inactive)	> 100 µM (inactive)	> 100 µM (inactive)
C/C(=N\NC(=O)CC#N)c1c(O)cc(C)oc1=O	> 100 µM (inactive)	> 100 µM (inactive)	> 100 µM (inactive)	> 100 µM (inactive)	> 100 µM (inactive)	> 100 µM (inactive)	> 100 µM (inactive)	> 100 µM (inactive)	> 100 µM (inactive)	> 100 µM (inactive)		> 100 µM (inactive)				> 100 µM (inactive)	> 100 µM (inactive)	> 100 µM (inactive)	> 100 µM (inactive)
CC(C)S(=O)(=O)n1c(N)nc2ccc(/C(=N/O)c3ccccc3)cc21 [ENVIROXIME]	18.2 µM (inactive)		8.32 µM (inactive)	14 µM (inactive)	30 µM (inactive)	23.1 µM (inactive)	0.223 µM (active)	27.7 µM (inactive)	14.2 µM (inactive)	16.9 µM (inactive)	17.5 µM (inactive)	3.61 µM (inactive)		18.6 µM (inactive)		21.8 µM (inactive)	16.4 µM (inactive)	14.2 µM (inactive)	10.6 µM (inactive)
CC(C)NC1CCCCC2c3ccccc3C12O (stereo not drawn)	> 100 µM (inactive)	> 100 µM (inactive)		> 100 µM (inactive)	> 100 µM (inactive)	> 100 µM (inactive)	> 100 µM (inactive)	> 100 µM (inactive)	> 100 µM (inactive)	> 100 µM (inactive)	> 100 µM (inactive)					> 100 µM (inactive)	> 100 µM (inactive)		> 100 µM (inactive)
O=C1NC2OCC(O)C(O)C2O1 (stereo not drawn)	> 100 µM (inactive)	> 100 µM (inactive)	> 100 µM (inactive)	> 100 µM (inactive)	> 100 µM (inactive)	> 100 µM (inactive)	> 100 µM (inactive)	> 100 µM (inactive)	> 100 µM (inactive)	> 100 µM (inactive)	> 100 µM (inactive)	> 100 µM (inactive)		> 100 µM (inactive)		> 100 µM (inactive)	> 100 µM (inactive)	> 100 µM (inactive)	> 100 µM (inactive)
COCN/C(N)=N/C#N	> 100 µM (inactive)		> 100 µM (inactive)	> 100 µM (inactive)	> 100 µM (inactive)	> 100 µM (inactive)	15.1 µM (inactive)	85.9 µM (inactive)	> 100 µM (inactive)	> 100 µM (inactive)	21.7 µM (inactive)	> 100 µM (inactive)		> 100 µM (inactive)		15.7 µM (inactive)	> 100 µM (inactive)	> 100 µM (inactive)	> 100 µM (inactive)
O=C1[C@H]2ON(c3ccccc3)C(c3cccc([N+](=O)[O-])c3)[C@H]2C(=O)N1c1ccc(Cc2ccc(N3C(=O)[C@@H]4ON(c5ccccc5)C(c5cccc([N+](=O)[O-])c5)[C@@H]4C3=O)cc2)cc1 (stereo partly drawn)	> 100 µM (inactive)	> 100 µM (inactive)	36.5 µM (inactive)	> 100 µM (inactive)	> 100 µM (inactive)	47.4 µM (inactive)	> 100 µM (inactive)	> 100 µM (inactive)	> 100 µM (inactive)	> 100 µM (inactive)	42.3 µM (inactive)			> 100 µM (inactive)		> 100 µM (inactive)	> 100 µM (inactive)	38.6 µM (inactive)	> 100 µM (inactive)
C=CCc1cc(OC)c2c(c1)C(O)CC(c1ccc(OC)c(OC)c1)O2 (stereo not drawn)	> 100 µM (inactive)			38.6 µM (inactive)	> 100 µM (inactive)	> 100 µM (inactive)	> 100 µM (inactive)	> 100 µM (inactive)	> 100 µM (inactive)	> 100 µM (inactive)	> 100 µM (inactive)	20.6 µM (inactive)		> 100 µM (inactive)		> 100 µM (inactive)	> 100 µM (inactive)	73.3 µM (inactive)	> 100 µM (inactive)
COc1ccc(C(Cc2ccccc2)C2NC(=S)NC2=O)cc1 (stereo not drawn)	> 25 µM (inactive)	> 25 µM (inactive)	> 25 µM (inactive)	> 25 µM (inactive)	> 25 µM (inactive)		9.27 µM (inactive)	> 25 µM (inactive)	> 25 µM (inactive)	> 25 µM (inactive)	> 25 µM (inactive)	> 25 µM (inactive)	> 25 µM (inactive)	> 25 µM (inactive)	> 25 µM (inactive)	> 25 µM (inactive)	> 25 µM (inactive)	> 25 µM (inactive)	> 25 µM (inactive)
CCCN(CCC)c1c([N+](=O)[O-])cc(C(=O)N(CC)CC)cc1[N+](=O)[O-]	23 µM (inactive)	16 µM (inactive)		16.4 µM (inactive)	20 µM (inactive)	17.7 µM (inactive)	14.8 µM (inactive)	17.6 µM (inactive)	12.3 µM (inactive)	22.6 µM (inactive)	18.1 µM (inactive)			14.5 µM (inactive)		28.6 µM (inactive)	18.6 µM (inactive)	25.1 µM (inactive)	20.8 µM (inactive)
Nc1nc(SCC(=O)c2ccccc2)c2[nH]cnc2n1	> 100 µM (inactive)	> 100 µM (inactive)	> 100 µM (inactive)	> 100 µM (inactive)	> 100 µM (inactive)	> 100 µM (inactive)	> 100 µM (inactive)	> 100 µM (inactive)	> 100 µM (inactive)	> 100 µM (inactive)	> 100 µM (inactive)	46.5 µM (inactive)		> 100 µM (inactive)		> 100 µM (inactive)		> 100 µM (inactive)	51.6 µM (inactive)
